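96-well plates; 48 h exposure; 5 concentrations. Endpoints by linear interpolation between flanking doses. Not reached: highest tested concentration assigned. Here, GI50 denotes the concentration required for 50% inhibition of growth.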 Active and inactive are the calls of the source. Rule as the data show it: active = GI50 up to about 1.1 µM and inactive = higher.
Columns and labels:
Experiment in all cases: NCI anticancer screen, dose series, 48 h
HOP-62 = tested on: HOP-62
RXF 393 = tested on: RXF 393
OVCAR-8 = tested on: OVCAR-8
MOLT-4 = tested on: MOLT-4
NCI-H226 = tested on: NCI-H226
NCI-H460 = tested on: NCI-H460
SF-268 = tested on: SF-268
EKVX = tested on: EKVX
Hs-578T = tested on: Hs-578T
SK-MEL-28 = tested on: SK-MEL-28
RPMI-8226 = tested on: RPMI-8226
HCT-15 = tested on: HCT-15
SNB-75 = tested on: SNB-75
UACC-257 = tested on: UACC-257
LOX IMVI = tested on: LOX IMVI
SK-MEL-5 = tested on: SK-MEL-5
KM12 = tested on: KM12
PC-3 = tested on: PC-3
OVCAR-5 = tested on: OVCAR-5

SMILES	GI50 (HOP-62)	GI50 (RXF 393)	GI50 (OVCAR-8)	GI50 (MOLT-4)	GI50 (NCI-H226)	GI50 (NCI-H460)	GI50 (SF-268)	GI50 (EKVX)	GI50 (Hs-578T)	GI50 (SK-MEL-28)	GI50 (RPMI-8226)	GI50 (HCT-15) [µM]	GI50 (SNB-75)	GI50 (UACC-257)	GI50 (LOX IMVI)	GI50 (SK-MEL-5)	GI50 (KM12)	GI50 (PC-3)	GI50 (OVCAR-5)
Nc1nnnn1NC(=O)NCCCl	> 10 µM (inactive)	> 10 µM (inactive)	> 10 µM (inactive)	> 10 µM (inactive)	> 10 µM (inactive)	> 10 µM (inactive)	> 10 µM (inactive)	> 10 µM (inactive)	> 10 µM (inactive)	> 10 µM (inactive)	> 10 µM (inactive)	> 10	> 10 µM (inactive)	> 10 µM (inactive)	> 10 µM (inactive)	> 10 µM (inactive)	> 10 µM (inactive)	> 10 µM (inactive)	–
c1csc(-c2cc(-c3cccs3)c(-c3ccsc3)s2)c1	> 100 µM (inactive)	–	> 100 µM (inactive)	> 100 µM (inactive)	> 100 µM (inactive)	> 100 µM (inactive)	> 100 µM (inactive)	> 100 µM (inactive)	> 100 µM (inactive)	> 100 µM (inactive)	96.2 µM (inactive)	19.2	> 100 µM (inactive)	58.1 µM (inactive)	> 100 µM (inactive)	> 100 µM (inactive)	55.5 µM (inactive)	> 100 µM (inactive)	–
COc1ccc(CN=C(N)N)c2ccccc12	0.78 µM (active)	33.7 µM (inactive)	38.8 µM (inactive)	48.3 µM (inactive)	27.4 µM (inactive)	–	12.1 µM (inactive)	21.1 µM (inactive)	24.1 µM (inactive)	22.3 µM (inactive)	31.6 µM (inactive)	> 100	20.5 µM (inactive)	47 µM (inactive)	24.8 µM (inactive)	20 µM (inactive)	25.5 µM (inactive)	17.7 µM (inactive)	22.8 µM (inactive)
[N-]=[N+]=NCN1C(=O)C2C3C=CC(C2C1=O)C1C2C(=O)N(CN=[N+]=[N-])C(=O)C2C31 (stereo unspecified)	> 100 µM (inactive)	–	> 100 µM (inactive)	–	–	> 100 µM (inactive)	> 100 µM (inactive)	> 100 µM (inactive)	> 100 µM (inactive)	> 100 µM (inactive)	> 100 µM (inactive)	> 100	–	> 100 µM (inactive)	> 100 µM (inactive)	> 100 µM (inactive)	> 100 µM (inactive)	> 100 µM (inactive)	–
CCN(CC)CCC1CCCCN1CC(=O)N1c2ccccc2NC(=O)c2ccccc21 (stereo unspecified)	> 100 µM (inactive)	> 100 µM (inactive)	> 100 µM (inactive)	> 100 µM (inactive)	> 100 µM (inactive)	> 100 µM (inactive)	> 100 µM (inactive)	> 100 µM (inactive)	> 100 µM (inactive)	> 100 µM (inactive)	> 100 µM (inactive)	> 100	6.11 µM (inactive)	> 100 µM (inactive)	> 100 µM (inactive)	> 100 µM (inactive)	> 100 µM (inactive)	> 100 µM (inactive)	> 100 µM (inactive)
O=c1[nH]c(=O)n(COC(CO)CO)cc1-c1ccccc1	> 100 µM (inactive)	–	> 100 µM (inactive)	> 100 µM (inactive)	–	> 100 µM (inactive)	> 100 µM (inactive)	> 100 µM (inactive)	> 100 µM (inactive)	> 100 µM (inactive)	> 100 µM (inactive)	> 100	> 100 µM (inactive)	> 100 µM (inactive)	> 100 µM (inactive)	> 100 µM (inactive)	> 100 µM (inactive)	> 100 µM (inactive)	> 100 µM (inactive)
COc1cc2c(c(OC)c1OC)-c1ccc(OC)c(=O)cc1[C@@H](NC(=O)c1ccccc1)CC2	0.0379 µM (active)	0.0234 µM (active)	–	0.0562 µM (active)	0.067 µM (active)	–	0.0154 µM (active)	5.15 µM (inactive)	< 0.0126 µM (active)	1.86 µM (inactive)	0.0608 µM (active)	0.021	< 0.0327 µM (active)	0.148 µM (active)	0.0142 µM (active)	0.0107 µM (active)	0.0106 µM (active)	0.0169 µM (active)	1.07 µM (active)
O=[N+]([O-])c1ccc2nc3n(c2c1)C(c1c(F)cccc1F)SC3 (stereo unspecified)	> 100 µM (inactive)	–	> 10 µM (inactive)	> 100 µM (inactive)	> 100 µM (inactive)	> 100 µM (inactive)	–	> 100 µM (inactive)	> 100 µM (inactive)	> 100 µM (inactive)	> 10 µM (inactive)	–	–	> 100 µM (inactive)	> 100 µM (inactive)	> 10 µM (inactive)	> 100 µM (inactive)	> 100 µM (inactive)	> 100 µM (inactive)
CCOC(=O)c1sc2[n+](c1C)C(=O)/C(=C/c1ccccc1Cl)S2	1.61 µM (inactive)	15.3 µM (inactive)	1.01 µM (active)	3.33 µM (inactive)	0.953 µM (active)	0.65 µM (active)	3.58 µM (inactive)	3.21 µM (inactive)	0.822 µM (active)	9.75 µM (inactive)	0.54 µM (active)	0.834	0.425 µM (active)	4.83 µM (inactive)	0.851 µM (active)	0.421 µM (active)	0.425 µM (active)	0.989 µM (active)	14.7 µM (inactive)
O=C(CC(O)(C(F)(F)Cl)C(F)(F)Cl)CC(O)(C(F)(F)Cl)C(F)(F)Cl	1.98 µM (inactive)	1.8 µM (inactive)	2.58 µM (inactive)	2.14 µM (inactive)	1.33 µM (inactive)	1.24 µM (inactive)	1.5 µM (inactive)	1.21 µM (inactive)	1.92 µM (inactive)	1.95 µM (inactive)	0.516 µM (active)	1.07	1.76 µM (inactive)	1.41 µM (inactive)	3.83 µM (inactive)	1.25 µM (inactive)	3.04 µM (inactive)	1.11 µM (active)	–
CCCc1cc2c(cc1O)CC[C@@H]1[C@@H]2CC[C@]2(C)[C@@H](O)CC[C@@H]12	–	10.2 µM (inactive)	14.4 µM (inactive)	5.6 µM (inactive)	13.4 µM (inactive)	10.7 µM (inactive)	13.2 µM (inactive)	12.7 µM (inactive)	10.1 µM (inactive)	13.1 µM (inactive)	–	4.98	13.5 µM (inactive)	13.1 µM (inactive)	10.5 µM (inactive)	10.5 µM (inactive)	9.12 µM (inactive)	13.4 µM (inactive)	19.5 µM (inactive)
O=C(Cc1nc2ccccc2s1)Nc1cccc(C(F)(F)F)c1	17.9 µM (inactive)	18.2 µM (inactive)	18.1 µM (inactive)	6.89 µM (inactive)	21.8 µM (inactive)	15.8 µM (inactive)	14.8 µM (inactive)	22.2 µM (inactive)	–	15 µM (inactive)	7.5 µM (inactive)	12.4	13.7 µM (inactive)	14.4 µM (inactive)	13.1 µM (inactive)	16.5 µM (inactive)	15.2 µM (inactive)	–	18.5 µM (inactive)

From ChEMBL document CHEMBL1201862, “PubChem BioAssay data set” (2004)
